One series relates to MV4-11 cells. The series can be described thus: MV4-11 Cell Cytotoxicity Assay (CellTiter-Blue, 72 h). The class given is cell-based, human. The note with it: Homo sapiens. Summed up:
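Viability read-out: CellTiter-Blue, 1 h, fluorescence 560/590 nm. Preceded by 72 h exposure (37° C, 5% CO2) to twofold dilution series from 50 μM, triplicate, 0.5% DMSO vehicle, applied 24 h after plating.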

In another series the test system is glutathione (GSH). The series can be described thus: Reactivity Profiling with Glutathione (GSH), half-life by HPLC. As to conditions: 5 mM glutathione (GSH) in IMDM with 10% FBS.
For series [1], the system named is normal human fibroblast (NHF) cells. The series can be described thus: NHF Cell Cytotoxicity Assay (CellTiter-Blue, 72 h), off-target effects. The series is classed as cell-based. The note with it: Homo sapiens, Fibroblast; pooled NHF cells. Summed up:
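Normal human fibroblasts (1×10^4/well, 10% FBS medium) were treated after 24 h with inhibitor at 0.097656-50 μM for 72 h at 37° C. Viability was read by CellTiter-Blue fluorescence (560/590 nm), normalized to DMSO control, and IC50 obtained from a variable-slope log(inhibitor)-response fit of four replicates.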

A short description of series [2]: Reactivity Profiling with Glutathione (GSH), half-life by HPLC. The note with it: 5 mM glutathione, 25° C., HPLC.
Description: 3.5 μL of 5 mM stocking solution of the inhibitors in DMSO was added to 697.5 μL of Iscove's Modified Dulbecco's Medium (IMDM) supplemented with 10% FBS and antibiotic antimycotic solution, with 5 mM glutathione to afford a final concentration of 25 μM inhibitor with 0.5% DMSO. The solution was then immediately placed in the sample tray at 25° C. […] For each inhibitor, its peak is integrated at different time points and compared to the time zero injection in order to obtain a percentage remaining. Half-life is calculated according to a first order reaction kinetic taking into account those time points for which remaining percentage of inhibitor is above 40%, using the formula: t½=Ln(2)/k, where k is the slope of the linear plot of Ln[Inhibitor] vs time, according to the formula: Ln[A]=Ln[A]0−kt, where [A] is the value resulting from the integration at each time point, [A]0 the value at time zero, and t the time. For each inhibitor, both replicates are averaged and the resulting t½ reported.

The structures appear in SMILES notation. pIC50: −log10 of the molar value. Read-outs that look alike come from different tables or passages of the source.

As for `CC(C)(C)c1cc(CN(C(=O)CN(Cc2c(F)cccc2Cl)S(=O)(=O)c2c(F)c(F)c(F)c(F)c2F)c2ccc(C(=O)O)cc2OC2CC2)cc(C2CC2)c1` [Compound 1238, 4-(N-(3-(tert-butyl)-5-cyclopropylbenzyl)-2-(N-(2-chloro-6-fluorobenzyl)-(2,3,4,5,6-pentafluorophenyl)sulfon-amido)acetamido)-3-cyclopropoxybenzoic acid], the pIC50 (commonly the negative decadic logarithm of the IC50, by convention in mol/L) in the series on MV4-11 cells (MV4-11, MV-4-11 cells) was 6.50 to 11.00; in series [1], 4.70 to 5.00. In addition, the half-life – broadly, the time in which the quantity being followed falls by half – at 25 μM with glutathione (GSH) is 9.23 to 1670 h.
The corresponding values for `O=C(O)c1ccc(N(Cc2cc(C3CC3)cc(C3CC3)c2)C(=O)CN(Cc2ccc(F)cc2Cl)S(=O)(=O)c2c(F)c(F)c(F)c(F)c2F)c(N2CCOCC2)c1` [Compound 1241, 4-(2-(N-(2-chloro-4-fluorobenzyl)-(2,3,4,5,6-pentafluorophenyl)sulfon-amido)-N-(3,5-dicyclopropylbenzyl)acetamido)-3-morpholinobenzoic acid] are 6.50 to 11.00, 5.00 to 9.00 and 4.12 to 9.23 h.
The corresponding values for `O=C(O)c1ccc(N(Cc2cc(C3CC3)cc(C3CC3)c2)C(=O)CN(CCc2ccc(F)cc2Cl)S(=O)(=O)c2c(F)c(F)c(F)c(F)c2F)c(OC2CC2)c1` [Compound 1242, 4-(2-(N-(2-chloro-4-fluorophenethyl)-(2,3,4,5,6-pentafluorophenyl)sulfon-amido)-N-(3,5-dicyclopropylbenzyl)acetamido)-3-cyclopropoxybenzoic acid] are 6.00 to 6.50, 4.70 to 5.00 and 0.00167 to 2.37 h.
The corresponding values for `COCCOc1cc(C(=O)O)ccc1N(Cc1cc(C2CC2)cc(C(C)(C)C)c1)C(=O)CN(Cc1ccc(F)cc1Cl)S(=O)(=O)c1c(F)c(F)c(F)c(F)c1F` [Compound 1246, 4-(N-(3-(tert-butyl)-5-cyclopropylbenzyl)-2-(N-(2-chloro-4-fluorobenzyl)-(2,3,4,5,6-pentafluorophenyl)sulfon-amido)acetamido)-3-(2-methoxyethoxy)benzoic acid] are 6.50 to 11.00, 4.70 to 5.00 and 2.37 to 4.12 h.
`Cc1cc(C(=O)O)ccc1N(Cc1cc(C2CC2)cc(C(C)(C)C)c1)C(=O)CN(Cc1cnccc1C(F)(F)F)S(=O)(=O)c1c(F)c(F)c(F)c(F)c1F` [Compound 1251, 4-(N-(3-(tert-butyl)-5-cyclopropylbenzyl)-2-(N-((4-(trifluoromethyl)pyridin-3-yl)methyl)-(2,3,4,5,6-pentafluoro-phenyl)sulfonamido)acetamido)-3-methylbenzoic acid]: the pIC50 in the series with MV4-11 cells (MV4-11, MV-4-11 cells) was 6.50 to 11.00; in series [1], 5.00 to 9.00. In the series on glutathione (GSH), this compound had a half-life at 25 μM of 0.00167 to 2.37 h.
The corresponding values for `CCOc1cc(C(=O)O)ccc1N(Cc1cc(C2CC2)cc(C2CC2)c1)C(=O)CN(Cc1ccc(F)cc1Cl)S(=O)(=O)c1c(F)c(F)c(F)c(F)c1F` [Compound 1252, 4-(2-(N-(2-chloro-4-fluorobenzyl)-(2,3,4,5,6-pentafluorophenyl)sulfon-amido)-N-(3,5-dicyclopropylbenzyl)acetamido)-3-ethoxybenzoic acid] are 6.50 to 11.00, 5.00 to 9.00 and 2.37 to 4.12 h.
For `CCCCOc1cc(C(=O)O)ccc1N(Cc1cc(C2CC2)cc(C2CC2)c1)C(=O)CN(Cc1ccc(F)cc1Cl)S(=O)(=O)c1c(F)c(F)c(F)c(F)c1F` [Compound 1254, 3-butoxy-4-(2-(N-(2-chloro-4-fluorobenzyl)-(2,3,4,5,6-pentafluorophenyl)sulfon-amido)-N-(3,5-dicyclopropylbenzyl)acetamido)benzoic acid], in that order: 6.50 to 11.00, 4.52 to 4.70 and 9.23 to 1670 h.
For `C#CCOc1cc(C(=O)O)ccc1N(Cc1cc(C2CC2)cc(C2CC2)c1)C(=O)CN(Cc1ccc(F)cc1Cl)S(=O)(=O)c1c(F)c(F)c(F)c(F)c1F` [Compound 1258, 4-(2-(N-(2-chloro-4-fluorobenzyl)-(2,3,4,5,6-pentafluorophenyl)sulfon-amido)-N-(3,5-dicyclopropylbenzyl)acetamido)-3-(prop-2-yn-1-yloxy)benzoic acid], in that order: 6.50 to 11.00, 4.70 to 5.00 and 0.00167 to 2.37 h.
In the case of `CCOc1cc(C(=O)O)ccc1N(Cc1cc(C2CC2)cc(C(C)(C)C)c1)C(=O)CN(Cc1ccccc1C#N)S(=O)(=O)c1c(F)c(F)c(F)c(F)c1F` [Compound 1272, 4-(N-(3-(tert-butyl)-5-cyclopropylbenzyl)-2-((N-(2-cyanobenzyl)-2,3,4,5,6-pentafluorophenyl)sulfonamido)acetamido)-3-ethoxybenzoic acid], the pIC50 was 6.50 to 11.00 with MV4-11 cells (MV4-11, MV-4-11 cells) and 4.70 to 5.00 in series [1]. In the series with glutathione (GSH), the half-life at 25 μM fell in the range of 2.37 to 4.12 h.
For the compound `CCOc1cc(C(=O)O)ccc1N(Cc1cc(C2CC2)cc(C2CC2)c1)C(=O)CN(Cc1ccccc1C#N)S(=O)(=O)c1c(F)c(F)c(F)c(F)c1F` [Compound 1273, 4-(2-((N-(2-cyanobenzyl)-2,3,4,5,6-pentafluorophenyl)sulfonamido)-N-(3,5-dicyclopropylbenzyl)acetamido)-3-ethoxybenzoic acid], the pIC50 was 6.50 to 11.00 in the series on MV4-11 cells (MV4-11, MV-4-11 cells) and 4.70 to 5.00 in series [1]. The compound further displayed a half-life at 25 μM in the series with glutathione (GSH) of 0.00167 to 2.37 h.
In the case of `CCOc1cc(C(=O)O)cc(F)c1N(Cc1cc(C2CC2)cc(C2CC2)c1)C(=O)CN(Cc1ccccc1C#N)S(=O)(=O)c1c(F)c(F)c(F)c(F)c1F` [Compound 1274, 4-(2-((N-(2-cyanobenzyl)-2,3,4,5,6-pentafluorophenyl)sulfonamido)-N-(3,5-dicyclopropylbenzyl)acetamido)-3-ethoxy-5-fluorobenzoic acid], the pIC50 in the series with MV4-11 cells (MV4-11, MV-4-11 cells) is 6.50 to 11.00; in series [1], 4.70 to 5.00. In the series with glutathione (GSH), the half-life at 25 μM is 2.37 to 4.12 h.
The corresponding values for `CCOc1cc(C(=O)O)cc(F)c1N(Cc1cc(C2CC2)cc(C2CC2)c1)C(=O)CN(Cc1ccc(F)cc1Cl)S(=O)(=O)c1c(F)c(F)c(F)c(F)c1F` [Compound 1276, 4-(2-((N-(2-chloro-4-fluorobenzyl)-2,3,4,5,6-pentafluorophenyl)sulfonamido)-N-(3,5-dicyclopropylbenzyl)acetamido)-3-ethoxy-5-fluorobenzoic acid] are 6.50 to 11.00, 4.70 to 5.00 and 4.12 to 9.23 h.
For `CCOc1cc(C(=O)O)ccc1N(Cc1cc(C2CC2)cc(C(C)(C)C)c1)C(=O)CN(Cc1cnccc1Cl)S(=O)(=O)c1c(F)c(F)c(F)c(F)c1F` [Compound 1277, 4-(N-(3-(tert-butyl)-5-cyclopropylbenzyl)-2-((N-((4-chloropyridin-3-yl)methyl)-2,3,4,5,6-pentafluorophenyl)sulfonamido)acetamido)-3-ethoxybenzoic acid], in that order: 6.50 to 11.00, 5.00 to 9.00 and 0.00167 to 2.37 h.
In the case of `CCOc1cc(C(=O)O)ccc1N(Cc1cc(C2CC2)cc(C2CC2)c1)C(=O)CN(Cc1ccccc1Cl)S(=O)(=O)c1c(F)c(F)c(F)c(F)c1F` [Compound 1278, 4-(2-((N-(2-chlorobenzyl)-2,3,4,5,6-pentafluorophenyl)sulfonamido)-N-(3,5-dicyclopropylbenzyl)acetamido)-3-ethoxybenzoic acid], the pIC50 was 6.50 to 11.00 with MV4-11 cells (MV4-11, MV-4-11 cells) and 4.70 to 5.00 in series [1]. The compound further came in with a half-life at 25 μM in the series with glutathione (GSH) of 2.37 to 4.12 h.
The corresponding values for `N#Cc1ccccc1CN(CC(=O)N(Cc1cc(C2CC2)cc(C2CC2)c1)c1ccc(C(=O)O)cc1OC1CCCC1)S(=O)(=O)c1c(F)c(F)c(F)c(F)c1F` [Compound 1279, 4-(2-((N-(2-cyanobenzyl)-2,3,4,5,6-pentafluorophenyl)sulfonamido)-N-(3,5-dicyclopropylbenzyl)acetamido)-3-(cyclopentyloxy)benzoic acid] are 6.50 to 11.00, 4.70 to 5.00 and 4.12 to 9.23 h.
For `CC(C)Oc1cc(C(=O)O)ccc1N(Cc1cc(C2CC2)cc(C2CC2)c1)C(=O)CN(Cc1ccccc1C#N)S(=O)(=O)c1c(F)c(F)c(F)c(F)c1F` [Compound 1280, 4-(2-((N-(2-cyanobenzyl)-2,3,4,5,6-pentafluorophenyl)sulfonamido)-N-(3,5-dicyclopropylbenzyl)acetamido)-3-isopropoxybenzoic acid], in that order: 6.50 to 11.00, 4.70 to 5.00 and 2.37 to 4.12 h.
The corresponding values for `CCOc1cc(C(=O)O)ccc1N(Cc1cc(C2CC2)cc(N2CCCC2)c1)C(=O)CN(Cc1ccccc1C#N)S(=O)(=O)c1c(F)c(F)c(F)c(F)c1F` [Compound 1281, 4-(2-((N-(2-cyanobenzyl)-2,3,4,5,6-pentafluorophenyl)sulfonamido)-N-(3-cyclopropyl-5-(pyrrolidin-1-yl)benzyl)acetamido)-3-ethoxybenzoic acid] are 6.50 to 11.00, 4.70 to 5.00 and 2.37 to 4.12 h.
Consider `CC(C)(C)c1cc(CN(C(=O)CN(Cc2ccc(Cl)cc2)S(=O)(=O)c2c(F)c(F)c(F)c(F)c2F)c2ccc(C(=O)O)c(O)c2)cc(C(C)(C)C)c1` [Compound 2001, 4-(2-(N-(4-chlorobenzyl)-(2,3,4,5,6-pentafluorophenyl)sulfon-amido)-N-(3,5-di-tert-butylbenzyl)acetamido)-2-hydroxybenzoic acid], for which the pIC50 in the series with MV4-11 cells (MV4-11 cells, 72 h, CellTiter-Blue, read-out: IC50- MV-4-11) was 4.00 to 5.50. Besides, the “Tl/2- GSH” value in series [2] is listed as “B (247≤B<554)”.

The record behind these values is patent US20230159445A1, “STAT INHIBITORY COMPOUNDS AND COMPOSITIONS” (JANPIX LIMITED, priority 2020, published 2023).
